{"source": "patent US20210252022A1", "about": "“COMPOSITION FOR THE PREVENTION OR THE TREATMENT OF VISUAL IMPAIRMENTS COMPRISING URSODEOXYCHOLIC ACID” (AMICOGEN PHARMA INC., priority 2017, published 2021)", "molecules": {"B1": {"name": "Lucentis®: antibody drug inhibiting the activity of VEGF, intravitreal injection once every four weeks (antibody, chains of the INN, looked up, V domains shown)", "VH": "EVQLVESGGGLVQPGGSLRLSCAASGYDFTHYGMNWVRQAPGKGLEWVGWINTYTGEPTYAADFKRRFTFSLDTSKSTAYLQMNSLRAEDTAVYYCAKYPYYYGTSHWYFDVWGQGTLVTVSS", "VL": "DIQLTQSPSSLSASVGDRVTITCSASQDISNYLNWYQQKPGKAPKVLIYFTSSLHSGVPSRFSGSGSGTDFTLTISSLQPEDFATYYCQQYSTVPWTFGQGTKVEIK", "modifications": "Fab"}}, "key": {"[1]": {"conditions": "cited from earlier work"}, "[2]": {"conditions": "cited from earlier work", "remark": "listed apart in the source"}, "[3]": {"conditions": "crystalline form, cited from earlier work"}, "[4]": {"system": "laser-induced choroidal neovascularization (CNV)", "assay": "Fundus fluorescein angiography (FFA) in laser-induced CNV mouse model", "assay_type": "in vivo, C57 BL/6 mice", "conditions": "intravitreal injection 2 μl per eyeball, 14 days after laser injury, vs PBS"}, "[5]": {"system": "vascular endothelial growth factor (VEGF)", "assay": "Western blot analysis of VEGF expression in the choroid and the retina", "assay_type": "in vivo, C57 BL/6 mice", "conditions": "intravitreal administration, day 15 after laser injury"}, "[6]": {"system": "laser-induced choroidal neovascularization (CNV)", "assay": "Optical coherence tomography (OCT) in laser-induced CNV mouse model", "assay_type": "in vivo, C57 BL/6 mice", "conditions": "intravitreal injection, day 14 after laser injury, vs PBS"}, "function of the retina": {"system": "function of the retina", "parameters": "species or system C57 BL/6 mice", "conditions": "mouse, in vivo", "description": "5) After C57 BL/6 mice (Orient Bio, Korea) were acclimatized to be adapted to the environment for 1 week, 7-week old mice were treated with the image-guided laser (Phoenix, USA) especially optic nerve area at 3, 6, 9, and 12 o'clock positions. The laser was irradiated at 532 nm, 100 ms/70 ms, 200 mW, and a spot size was 50 μm.\nThe mice were dark adapted for 24 hours before test and all tests were performed in a darkroom. The eyes of mice were dilated and general anesthetized by intraperitoneal injection with a mixture of ketamine (30 mg/kg) and xylazine hydrochloride (2.5 mg/kg) in order to detect the function of the retina. Electrodes were placed in skin, tail and cornea to run electroretinography. […] The amplitude from the trough of A-wave to the peak of B-wave was measured and evaluated as an index of the function of the retina. […]\nFIG. 9A-FIG. 9F are the test results that measured the response degree of retina to the white light after dark adaptation of group with intravitreal injection at day 15 after laser injury.\nThe dose of each individual was calculated based on the body weight measured immediately prior to administration and then orally administered using a disposable syringe equipped with sonde. […]\nFIG. 14A-FIG. 14E are the test results that measured the response degree of retina to the white light after dark adaptation of group with oral administration at day 14 after laser injury."}, "[7]": {"conditions": "DMSO/PBS (pH 7.2) solution; cited from earlier work"}, "[8]": {"system": "wet (age-related) macular degeneration", "conditions": "in vivo; cited from earlier work"}}, "note": "“Also recorded” adds a separate entry of the source. Like-named read-outs stand apart in the source and are kept apart here."}
{"molecule": "C[C@H](CCC(=O)O)[C@H]1CC[C@H]2[C@@H]3[C@@H](O)C[C@@H]4C[C@H](O)CC[C@]4(C)[C@H]3CC[C@]12C", "note": "[UDCA, ursodeoxycholic acid]", "values": [{"measurement": "solubility in water", "setting": "[1]", "result": 20, "unit": "µg/mL"}, {"measurement": "solubility in water", "setting": "[1]; protonated form", "result": 53, "unit": "µM"}, {"measurement": "absorbed at the ileum of the colon by the active transport mechanism", "setting": "[2]; oral tablet or capsule, crystalline form", "result": "up to 20 % of intakes"}, {"measurement": "absorbed along the jejunum and ileum by nonionic passive diffusion", "setting": "[2]; oral tablet or capsule", "result": "30-60%"}, {"measurement": "absorbed to the liver through the small intestine", "setting": "[2]; taken orally", "result": "≥ 95", "unit": "%"}, {"measurement": "acid dissociation constant, pKa", "setting": "[3]", "result": "about 5.0"}, {"measurement": "acid dissociation constant, pKa", "setting": "[3]; listed as ursodeoxycholic acid", "result": 5.1}]}
{"molecule": "Eylea®: conventional VEGF antibody drug, positive control, intravitreal injection", "values": [{"measurement": "choroidal neovascularization (FFA, corrected total fluorescence)", "setting": "[4]", "result": "statistically significantly inhibited"}, {"measurement": "expression of VEGF in the choroid and the retina", "setting": "[5]", "result": "decreased; also recorded: less compared to that of YSB201"}, {"measurement": "size of CNV lesions (OCT)", "setting": "[6]", "result": "statistically significantly inhibited"}, {"measurement": "ERG response", "setting": "function of the retina", "result": "increased"}]}
{"molecule": "C[C@H](CCC(=O)NCCS(=O)(=O)O)[C@H]1CC[C@H]2[C@@H]3[C@@H](O)C[C@@H]4C[C@H](O)CC[C@]4(C)[C@H]3CC[C@]12C", "note": "[tUDCA, tauroursodeoxycholic acid]", "values": [{"measurement": "solubility in water", "setting": "[1]", "result": 200, "unit": "µg/mL"}, {"measurement": "solubility", "setting": "[1]; first dissolved in DMSO, then mixed with PBS (pH 7.2) 1:4", "result": "up to 200 mg/l"}, {"measurement": "pH (strong acidity)", "setting": "[3]", "result": "≤ 1"}, {"measurement": "time the stability of the solution can be maintained", "setting": "[7]", "result": "about 1 day"}]}
{"molecule": "B1", "values": [{"measurement": "vision improvement rate", "setting": "[8]", "result": 40, "unit": "%"}, {"measurement": "vision maintenance effect", "setting": "[8]", "result": 90, "unit": "%"}]}
